For series [1] the following is noted: cited from earlier work.
A further series relates to WiDr colon, res. Kind of series: Cytotoxicity in tumor cell culture, SRB assay. It counts as cell-based. Conditions: multidrug-resistant; read-out: IC50 against human mouse tumors, WiDr colon res. The text has this: (§1) Relative potencies of the N-substituted 2-cyanoaziridine-1-carboxamides in a panel of tumor cell cultures are compared in Table 3. This panel includes the following lines of human tumor cells: sensitive and imexon-resistant lines of multiple myeloma (Matsuoka et al., 1967); ovarian carcinoma resistant to standard drugs (Hamilton et al., 1984); melanoma with a slow growth fraction (Girard et al., 1973); breast carcinoma including sensitive, doxorubicin-resistant (P-glycoprotein-positive) (Taylor et al., 1991), and mitoxantrone-resistant (P-glycoprotein-negative) (Futscher et al., 1994) lines; sensitive and multidrug-resistant colon carcinoma (Noguchi et al., 1979; Dalton et al., 1988); and multidrug-resistant lung carcinoma (P-glycoprotein-negative) (Girard et al., 1973). It also has sensitive (Goldin et al., 1961) and multidrug-resistant (P-glycoprotein-positive) (Salmon and Hersh, 1994) murine L1210 leukemia cells.

In a further series the test system is WiDr colon, Sens. The series is described as follows: Cytotoxicity in tumor cell culture, SRB assay. Conditions: read-out: IC50 against human mouse tumors, WiDr colon Sens. It counts as cell-based.
Description: as §1
(In SRB staining, fixed cells bind dye roughly in proportion to their protein.)

The test system of series [2] is 8226 myeloma, Res (imexon-resistant). The series is described as follows: Cytotoxicity in tumor cell culture, SRB assay. In kind it is cell-based. The note with it: line made resistant to imexon; read-out: IC50 against human mouse tumors, 8226 myeloma Res.
Description: as §1

In series [3] the test system is MCF7 breast, Dox (doxorubicin-resistant). The series is described as follows: Cytotoxicity in tumor cell culture, SRB assay. It counts as cell-based, human. The note with it: doxorubicin-resistant; read-out: IC50 against human mouse tumors, MCF7 breast Dox.
Description: as §1

The test system of the next series is MCF7 breast, Sens. Kind of series: Cytotoxicity in tumor cell culture, SRB assay. In kind it is cell-based, human. The note with it: read-out: IC50 against human mouse tumors, MCF7 breast Sens.
Description: as §1

Series [4] concerns MCF7 breast, mitox (mitoxantrone-resistant). Kind of series: Cytotoxicity in tumor cell culture, SRB assay. In kind it is cell-based, human. Conditions: mitoxantrone-resistant; read-out: IC50 against human mouse tumors, MCF7 breast mitox.
Description: as §1

A further series relates to A-549 lung. The series is described as follows: Cytotoxicity in tumor cell culture, SRB assay. It counts as cell-based, human. The note with it: read-out: IC50 against human mouse tumors, A-549 lung.
Description: as §1

The next series relates to OVCAR3 ovarian. Kind of series: Cytotoxicity in tumor cell culture, SRB assay. In kind it is cell-based, human. The note with it: read-out: IC50 against human mouse tumors, OVCAR3 ovarian.
Description: as §1

Another series has as its system A375 melan. The series is described as follows: Cytotoxicity in tumor cell culture, SRB assay. In kind it is cell-based, human. The note with it: read-out: IC50 against human mouse tumors, A375 melan.
Description: as §1

The test system of series [5] is 8226 myeloma, Sens (drug-sensitive). Kind of series: Cytotoxicity in tumor cell culture, SRB assay. In kind it is cell-based, human.
Description: as §1

For series [6] the following is noted: substituent constant, from Hansch and Leo or calculated using Clog P software; cited from earlier work.
A further series has as its system L1210 leukemia, Mdr. Kind of series: Cytotoxicity in tumor cell culture, MTT assay. It counts as cell-based, murine. The note with it: MTT assay, multidrug-resistant; read-out: IC50 against human mouse tumors, L1210 leukemia Mdr.
Description: as §1
Background: Tetrazolium dyes change colour on reduction, which living cells bring about.

The test system of another series is L1210 leukemia, Sens. Kind of series: Cytotoxicity in tumor cell culture, MTT assay. In kind it is cell-based, murine. Conditions: MTT assay; read-out: IC50 against human mouse tumors, L1210 leukemia Sens.
Description: as §1

The mark [7] stands for this setting: against sensitive myeloma, values repeated from Table 3 (μM there), read-out: IC50.
[8] abbreviates: drug-sensitive line, read-out: IC50 against human mouse tumors, 8226 myeloma Sens.
Where [9] appears, read: intravenous injection, after distribution.
The mark [10] stands for this setting: single oral doses of about 0.6 mg/kg to about […].

For orientation: IC50 means the concentration that inhibits the measured activity by half.

Each structure is given as a SMILES string. Structures can show the parent of a compound that is named as a salt. Where two headings read alike, the source gives them in different places. Starred links: 1 amine or outer side, 2 acyl side, 3 side chain; linkers in the order of their positions; H or OH if unused. Positions of bridges follow the written chain, without caps; N, C: chain ends. Non-standard residues stand in square brackets, D forms with d. Residues, ends and D or L forms follow the SMILES beside them. Chains are numbered I, II in the order given. Actinocin(9to1) = Cc1c2oc3c(C)ccc(C(=O)[*:1])c3nc-2c(C(=O)[*:2])c(N)c1=O; NMeV = CN[C@H](C(=O)O)C(C)C; Sar = CNCC(=O)O

Consider `N.N.[Cl][Pt][Cl]` [Cisplatin], for which, in series [1] (in vivo), the “oral absorption” value was “not absorbed orally”.
For `N#CC1CN1C(=O)NC1CCCCC1` (stereo not shown) [Compound 10, 2-Cyanoaziridine-1-(N-cyclohexyl) carboxamide], the IC50 with WiDr colon, res came to 12 µM; in the series on WiDr colon, Sens, 2.4 µM; in series [2] it was 98 µM; in [3], 8.9 µM; in the series with MCF7 breast, Sens it was 13 µM; in series [4] it was 9.8 µM. Further, the IC50 in the series on A-549 lung was 10 µM; in the series with OVCAR3 ovarian it was 31 µM; in the series on A375 melan it was 35 µM; in series [5] (setting [7]), 36 µM; in series [5] (setting [8]) it was 36 µM; in the series with L1210 leukemia, Mdr, 16 µM. The IC50 in the series on L1210 leukemia, Sens was 7.4 µM. Further, the “Log(1/C)” value in [5] (against sensitive myeloma) worked out at 4.44. In series [6], the π was 2.51.
For the molecule `CC(=O)Oc1ccccc1NC(=O)N1CC1C#N` (stereo not shown) [Compound 21, 2-Cyanoaziridine-1-[N-(2-acetoxyphenyl)]carboxamide], the half-inhibitory concentration (IC50) in the series with WiDr colon, res worked out at 9 µM; in the series on WiDr colon, Sens, 3.3 µM; in [2] it was 9.6 µM; in [3], 3.2 µM; in the series with MCF7 breast, Sens it was 3.6 µM; in [4], 3.5 µM. The IC50 came out at 5.6 µM in the series on A-549 lung; 10 µM with OVCAR3 ovarian; 7.9 µM in the series on A375 melan; 8.7 µM in [5] (setting [7]); 8.7 µM in series [5] (setting [8]); 7.9 µM in the series on L1210 leukemia, Mdr. Moreover, in the series on L1210 leukemia, Sens, the IC50 was found to be 9.6 µM. For the same molecule, the “Log(1/C)” value in series [5] (against sensitive myeloma) was determined as 5.06. The π in [6] is 1.45.
As to `CC[C@]1(O)C[C@@H]2CN(CCc3c([nH]c4ccccc34)[C@@](C(=O)OC)(c3cc4c(cc3OC)N(C)[C@H]3[C@@](O)(C(=O)OC)[C@H](OC(C)=O)[C@]5(CC)C=CCN6CC[C@]43[C@@H]65)C2)C1` [Vinblastine], in series [1] (in vivo), the “oral absorption” value is reported as “Unpredictable absorption” and the “dose recovered in the feces after biliary excretion” value is recorded as “about 10%”. In [1] (setting [9]), the “plasma half-life, first” value is on record as “approximately 1 hours” and the “plasma half-life, second” value is ~20 h.
Consider `COc1cccc2c1C(=O)c1c(O)c3c(c(O)c1C2=O)C[C@@](O)([C@H](C)O)C[C@@H]3O[C@H]1C[C@H](N)[C@H](O)[C@H](C)O1` [daunorubicinol], for which, in [1] (metabolite of daunorubicin), the “half-life of active metabolite” value is “about 27 hours”.
Take `CCOC(=O)CNC(=O)N1CC1C#N` (stereo not shown) [Compound 12]: the IC50 in the series on WiDr colon, res was 33 µM; in the series with WiDr colon, Sens, 31 µM; in series [2], 30 µM; in series [3] it was 17 µM; in the series on MCF7 breast, Sens it was 15 µM; in series [4], 11 µM. In addition, the IC50 with A-549 lung is 24 µM; in the series with A375 melan, 51 µM; in series [5] (setting [7]), 25 µM; in series [5] (setting [8]), 25 µM; with L1210 leukemia, Mdr it was 13 µM; with L1210 leukemia, Sens, 13 µM. Also, the “Log(1/C)” value in series [5] (against sensitive myeloma) is 4.60. In addition, the π in series [6] is recorded as 1.01.
Regarding `COc1cccc2c1C(=O)c1c(O)c3c(c(O)c1C2=O)C[C@@](O)(C(=O)CO)C[C@@H]3O[C@H]1C[C@H](N)[C@H](O)[C@H](C)O1` [Doxorubicin, 5,12-Naphthacenedione, (8s-cis)-10-[(3-amino-2,3,6-trideoxy-a-L-lyxo-hexopyranosyl)oxy]-7,8,9,10-tetrahydro-6,8,11-trihydroxy-8-(hydroxyacetyl)-1-methoxy-hydrochloride], in [1] (in vivo), the “oral absorption” value is “absorbed poorly” and the elimination half-life result is reported as “about 30 hours”.
`CCOC(=O)c1ccc(NC(=O)N2CC2C#N)cc1` (stereo not shown) [Compound 19, 2-Cyanoaziridine-1-[N-(4-ethoxycarbonylphenyl)]carboxamide]: the 50% inhibitory concentration (IC50) in the series with WiDr colon, res worked out at 4.2 µM; in the series on WiDr colon, Sens it was 2.5 µM; in [2], 3 µM; in series [3] it was 2.1 µM; in the series with MCF7 breast, Sens it was 2.3 µM; in series [4], 3.3 µM. In addition, the IC50 in the series with A-549 lung amounted to 2.9 µM; in the series on OVCAR3 ovarian, 7.7 µM; in the series with A375 melan, 5.8 µM; in [5] (setting [8]), 3 µM; with L1210 leukemia, Mdr, 9.7 µM; with L1210 leukemia, Sens, 9.7 µM.
On to `CC[C@]1(O)C[C@H]2CN(CCc3c([nH]c4ccccc34)[C@@](C(=O)OC)(c3cc4c(cc3OC)N(C=O)[C@H]3[C@@](O)(C(=O)OC)[C@H](OC(C)=O)[C@]5(CC)C=CCN6CC[C@]43[C@@H]65)C2)C1` [Vincristine], for which the “oral absorption” value in series [1] (in vivo) is listed as “Unpredictable absorption”. Moreover, in series [1] (plasma), the terminal half-life result was “about 24 hours”.
Consider `O=NN(CCCl)C(=O)NC1CCCCC1` [Lomustine, 1-(2-chloro-ethyl)-3-cyclohexyl-1 nitrosourea], for which the “radioactivity excreted in the form of degradation products within 24 hours” value in series [1] (oral radioactive lomustine, about 30 mg/m^2 to 100 mg/m^2) was “about half”.
For `O=C(O)CCCc1ccc(N(CCCl)CCCl)cc1` [Chlorambucil, 4-[bis(2-chlorethyl)amino] benzenebutanoic acid], the “oral absorption” value in series [1] (in vivo) is “rapidly and completely absorbed”. Further, in series [1] (setting [10]), the “terminal half-life of the parent drug” value was “about 1.5 hours” and the “time to peak plasma chlorambucil levels” value was “one”.
Take `COc1cccc2c1C(=O)c1c(O)c3c(c(O)c1C2=O)C[C@@](O)(C(C)=O)C[C@@H]3O[C@H]1C[C@H](N)[C@H](O)[C@H](C)O1` [Daunorubicin, 5,12-Naphthacenedione, (8S-cis)-8-acetyl-10-[(3-amino-2,3,6-trideoxy-a-L-lyxo-hexanopyranosyl)oxy]-7,8,9,10-tetrahydro-6,8,11-trihydroxy-10-methoxy-, hydrochloride]: in series [1] (in vivo), the “oral absorption” value is “poor” and the half-life of elimination result is given as “about 19 hours”.
`CC(=O)c1cccc(NC(=O)N2CC2C#N)c1` (stereo not shown) [Compound 20, 2-Cyanoaziridine-1-[N-(3-acetylphenyl)]carboxamide]: the 50% inhibitory concentration (IC50) with WiDr colon, res is > 41 µM; with WiDr colon, Sens, 40 µM; in [2], > 39 µM; in [3], > 16 µM; in the series with MCF7 breast, Sens, > 16 µM; in [4], > 16 µM. In addition, the 50% inhibitory concentration (IC50) in the series on A-549 lung is > 41 µM; in the series on OVCAR3 ovarian, > 39 µM; in the series with A375 melan, > 39 µM; in series [5] (setting [8]), > 39 µM; with L1210 leukemia, Mdr, > 39 µM; in the series on L1210 leukemia, Sens, > 39 µM.
`N#CC1CN1C(=O)Nc1ccc(S(N)(=O)=O)cc1` (stereo not shown) [Compound 22, 2-Cyanoaziridine-1-[N-(4-sulfamylphenyl)]carboxamide]: the IC50 is > 38 µM with WiDr colon, res; > 38 µM in the series on WiDr colon, Sens; > 38 µM in series [2]; > 15 µM in series [3]; > 15 µM in the series with MCF7 breast, Sens; > 15 µM in series [4]. The IC50 is > 38 µM in the series on A-549 lung; 188 µM in the series on OVCAR3 ovarian; 188 µM with A375 melan; > 38 µM in [5] (setting [8]); > 38 µM in the series on L1210 leukemia, Mdr; > 38 µM with L1210 leukemia, Sens.
For `Cc1c2oc3c(C)ccc(C(=O)N[C@@H]4C(=O)N[C@H](C(C)C)C(=O)N5CCC[C@H]5C(=O)N(C)CC(=O)N(C)[C@@H](C(C)C)C(=O)O[C@@H]4C)c3nc-2c(C(=O)N[C@@H]2C(=O)N[C@H](C(C)C)C(=O)N3CCC[C@H]3C(=O)N(C)CC(=O)N(C)[C@@H](C(C)C)C(=O)O[C@@H]2C)c(N)c1=O` [Actinomycin D] (I: T[dV]P[Sar][NMeV] / II: T[dV]P[Sar][NMeV]; ester I:1-I:C, II:1-II:C; linker I:N-II:N via Actinocin(9to1)), in series [1] (in vivo), the “dose excreted intact into the bile” value is “Half”, the “dose excreted intact into the urine” value is given as 10%, the half-life result is given as “about 36 hours” and the “passage of the blood-brain barrier” value is “does not pass the blood-brain barrier”.

These data come from US20030129222A1, “Liposomal imexon” (priority 2000, published 2003).
